System: brains, heart, liver, muscle, and DRG of the NHPs
Assay: Maturation of TTM-001 and TTM-002 capsids, NGS enrichment in NHP tissues
Format: in vivo
From the text: This Example describes maturation of the AAV9 capsid variants, TTM-001 (SEQ ID NO: 981 (amino acid) and 983 (DNA), comprising SEQ ID NO: 941 (encoded by SEQ ID NO: 942)) and TTM-002 (SEQ ID NO: 982 (amino acid) and 984 (DNA), comprising SEQ ID NO: […] (encoded by SEQ ID NO: 944)) in NHPs to further enhance their transduction and biodistribution in the central nervous system as well as other tissues, and evolve the AAV capsid variants to provide further cross-species compatibility. Two approaches were used to mature the TTM-001 and TTM-002 capsid sequences in order to randomize and mutate within and around the peptide insert comprised within loop IV of the capsid variant. […] In the first maturation approach, sets of three contiguous amino acids were randomized across the mutagenesis region in the TTM-001 and TTM-002 sequences, which spanned from position 450 to position 466, numbered according to SEQ ID NO: 981 and 982. In the second maturation approach, mutagenic primers were used to introduce point mutations at a low frequency, scattered across the mutagenesis region in the TTM-001 and TTM-002 sequences ranging from position 449 to position 466, numbered according to SEQ ID NO: 981 and 982. AAV capsid variants arising from each maturation approach for TTM-001 and TTM-002 were pooled together, for subsequent testing and characterization in NHPs.
The library of pooled matured AAV capsid variants generated using the first maturation approach and the second maturation approach for the TTM-001 and TTM-002 AAV capsid variants were injected into two NHPs. […] Following RNA recovery and RT-PCR amplification, a systematic NGS enrichment analysis was performed to calculate the fold enrichment ratio relative to an AAV9 control, and the peptides comprised within the variants were identified.
Following the RNA recovery and NGS analysis from the second maturation approach, approximately 680,000 capsid variants were identified. The 680,000 matured capsid variants were then filtered based on samples with a raw virus count greater than 10 and a coefficient of variance (CV) of less than 1, which was calculated for each peptide across the brain samples taken from the two NHPs. […] Using this filtering criteria, this led to approximately 64,000 matured capsid variants.

[1] = NHP DRG, NGS, relative to AAV9 control
[2] = NHP brain, NGS, relative to AAV9 control
[3] = NHP heart, NGS, relative to AAV9 control
[4] = NHP liver DNA, NGS, relative to AAV9 control
[5] = NHP liver RNA, NGS, TTM-001 and TTM-002 matured AAV capsid variants, relative to AAV9 control
[6] = NHP muscle, NGS, relative to AAV9 control
[7] = NGS fold-enrichment, DRG, NHP, relative to AAV9
[8] = NGS fold-enrichment, brain, NHP, relative to AAV9
[9] = NGS fold-enrichment, heart, NHP, relative to AAV9
[10] = NGS fold-enrichment, liver DNA, NHP, relative to AAV9
[11] = NGS fold-enrichment, liver RNA, NHP, relative to AAV9
[12] = NGS fold-enrichment, muscle, NHP, relative to AAV9

Sequence	Fold Enrichment relative to AAV9, DRG (NHP) [1]	Fold Enrichment relative to AAV9, Brain (NHP) [2]	Fold Enrichment relative to AAV9, Heart (NHP) [3]	Fold Enrichment relative to AAV9, Liver DNA (NHP) [4]	Fold Enrichment relative to AAV9, Liver RNA (NHP) [5]	Fold Enrichment relative to AAV9, Muscle (NHP) [6]	Fold Enrichment relative to AAV9, DRG (NHP) [7]	Fold Enrichment relative to AAV9, Brain (NHP) [8]	Fold Enrichment relative to AAV9, Heart (NHP) [9]	Fold Enrichment relative to AAV9, Liver DNA (NHP) [10]	Fold Enrichment relative to AAV9, Liver RNA (NHP) [11]	Fold Enrichment relative to AAV9, Muscle (NHP) [12]
KTINGSVSPHCTAQNQQT (peptide inserted in AAV capsid)	0.000 fold	0.000 fold	0.000 fold	2.955 fold	13.502 fold	0.000 fold	–	–	–	–	–	–
KTINGSYSPHCLAQNQQT (peptide inserted in AAV capsid)	0.000 fold	0.000 fold	0.000 fold	0.309 fold	62.942 fold	0.000 fold	–	–	–	–	–	–
KTINGTRSPHKKAQNQQT	0.225 fold	0.700 fold	0.052 fold	1.152 fold	14.173 fold	4.082 fold	–	–	–	–	–	–
KTINHRISPHSKAQNQQT	0.000 fold	0.000 fold	0.000 fold	1.876 fold	42.998 fold	0.000 fold	–	–	–	–	–	–
KTINKCLSPHSKAQNQQT	0.000 fold	0.000 fold	0.000 fold	5.097 fold	30.667 fold	0.000 fold	–	–	–	–	–	–
KTINLGCSPHSKAQNQQT	0.000 fold	0.000 fold	0.000 fold	0.654 fold	12.564 fold	0.000 fold	–	–	–	–	–	–
KTINRQFSPHSKAQNQQT	–	–	–	–	–	–	0.000 fold	0.000 fold	0.000 fold	4.480 fold	10.275 fold	0.000 fold
KTINRYSSPHSKAQNQQT	–	–	–	–	–	–	0.000 fold	0.000 fold	0.000 fold	1.544 fold	10.926 fold	0.000 fold
KTINSCFSPHSKAQNQQT	0.000 fold	0.000 fold	0.000 fold	1.016 fold	11.847 fold	0.000 fold	–	–	–	–	–	–
KTINWSRSPHSKAQNQQT	0.000 fold	0.000 fold	0.000 fold	5.624 fold	14.399 fold	0.000 fold	–	–	–	–	–	–
KTINYTRSPHSKAQNQQT	0.000 fold	0.000 fold	0.000 fold	0.431 fold	11.514 fold	0.000 fold	–	–	–	–	–	–
KTISGHDSPHISGQYQQT	0.000 fold	0.000 fold	0.074 fold	0.420 fold	12.395 fold	1214.588 fold	–	–	–	–	–	–
KTIVGSGSPHSKPQNQQT	–	–	–	–	–	–	0.000 fold	0.000 fold	0.000 fold	0.894 fold	10.381 fold	0.000 fold
KTKLCSGSPHSKAQNQQT	0.000 fold	0.000 fold	0.000 fold	2.139 fold	12.570 fold	0.000 fold	–	–	–	–	–	–
KTMQRSGSPHSKAQNQQT	0.000 fold	0.000 fold	0.000 fold	3.159 fold	18.020 fold	0.000 fold	–	–	–	–	–	–
KTQRKSGSPHSKAQNQQT	0.000 fold	0.000 fold	0.000 fold	1.439 fold	119.659 fold	0.000 fold	–	–	–	–	–	–
KTRKRSGSPHSKAQNQQT	0.000 fold	0.000 fold	0.000 fold	2.075 fold	16.603 fold	0.000 fold	–	–	–	–	–	–
KTRRPSGSPHSKAQNQQT	0.000 fold	0.000 fold	0.000 fold	2.384 fold	42.374 fold	0.000 fold	–	–	–	–	–	–
KTRTRSGSPHSKAQNQQT	0.000 fold	0.000 fold	0.000 fold	6.894 fold	25.852 fold	0.000 fold	–	–	–	–	–	–
KTTGRSGSPHSKAQNQQT	–	–	–	–	–	–	0.000 fold	0.000 fold	0.000 fold	0.126 fold	10.863 fold	0.000 fold
KTTRCSGSPHSKAQNQQT	0.000 fold	0.000 fold	0.000 fold	8.168 fold	12.639 fold	0.000 fold	–	–	–	–	–	–
KTTRKSGSPHSKAQNQQT	0.000 fold	0.000 fold	0.000 fold	2.617 fold	18.849 fold	0.000 fold	–	–	–	–	–	–

Source: patent US20260250318A1, “COMPOSITIONS AND METHODS FOR CROSSING THE BLOOD BRAIN BARRIER” (VOYAGER THERAPEUTICS, INC., priority 2022, published 2026)
